In patent US20250250230A1, “HETEROCYCLIC COMPOUND” (TAKEDA PHARMACEUTICAL COMPANY LIMITED, priority 2022, published 2025):

The molecules below were run against T1, human orexin type 2 receptor (Homo sapiens, UniProt O43614) (assay: Measurement of orexin type 2 receptor agonist activity (calcium fluorescence, Fluo-4 AM, FDSS)). Conditions: test compound 3 μM; CHO cells expressing human OX2 receptor; DMSO = 0%, orexin A (human) = 100%.
T1 construct: expressed in transfected cells
T1 sequence (O43614 1-444): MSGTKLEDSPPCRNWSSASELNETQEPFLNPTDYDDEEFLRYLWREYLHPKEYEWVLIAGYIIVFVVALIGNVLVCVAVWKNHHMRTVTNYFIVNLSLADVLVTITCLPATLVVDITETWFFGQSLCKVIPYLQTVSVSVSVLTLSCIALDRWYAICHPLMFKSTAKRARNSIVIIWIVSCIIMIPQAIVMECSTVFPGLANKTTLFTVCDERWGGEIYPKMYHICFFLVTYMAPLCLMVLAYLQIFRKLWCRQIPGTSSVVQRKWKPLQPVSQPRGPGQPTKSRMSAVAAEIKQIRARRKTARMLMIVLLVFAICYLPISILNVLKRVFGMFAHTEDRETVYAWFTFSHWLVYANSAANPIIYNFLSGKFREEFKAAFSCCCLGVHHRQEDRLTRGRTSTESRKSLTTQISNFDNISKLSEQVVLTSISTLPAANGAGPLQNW
Format: cell-based
How it was run: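 CHO-K1 cells stably expressing human OX2R were loaded with Fluo-4 AM (30 min 37 °C, 30 min RT) in HEPES-buffered HBSS with 0.1% BSA and probenecid. Calcium fluorescence was followed on FDSS for 2 min after compound addition; activity normalised to DMSO (0%) and 10 nM orexin A (100%).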
`CS(=O)(=O)NC1CCN(C(=O)C2CC2c2ccccc2-c2cccc(F)c2F)C1` (racemic) [Example 81, a mixture of rac-N-{(3R)-1-[(1R,2R)-2-(2′,3′-difluoro[1,1′-biphenyl]-2-yl)cyclopropane-1-carbonyl]pyrrolidin-3-yl}methanesulfonamide and rac-N-{(3S)-1-[(1R,2R)-2-(2′,3′-difluoro[1,1′-biphenyl]-2-yl)cyclopropane-1-carbonyl]pyrrolidin-3-yl}methanesulfonamide] was tested, and the “OX2R agonist activity (3 μM, %)” value was 70%.
`CS(=O)(=O)NC1CCN(C(=O)C2CC2c2ccccc2-c2ccccc2Cl)C1` (racemic) [Example 85, a mixture of rac-N-{(3R)-1-[(1R,2R)-2-(2′-chloro[1,1′-biphenyl]-2-yl)cyclopropane-1-carbonyl]pyrrolidin-3-yl}methanesulfonamide and rac-N-{(3S)-1-[(1R,2R)-2-(2′-chloro[1,1′-biphenyl]-2-yl)cyclopropane-1-carbonyl]pyrrolidin-3-yl}methanesulfonamide] was tested, and the “OX2R agonist activity (3 μM, %)” value was 68%.
In the case of `CS(=O)(=O)NC1CCCN(C(=O)C2CC2c2ccc(F)cc2-c2ccccc2)CC1` (racemic) [Example 87, a mixture of rac-N-{(4R)-1-[(1R,2R)-2-(5-fluoro[1,1′-biphenyl]-2-yl)cyclopropane-1-carbonyl]azepan-4-yl}methanesulfonamide and rac-N-{(4S)-1-[(1R,2R)-2-(5-fluoro[1,1′-biphenyl]-2-yl)cyclopropane-1-carbonyl]azepan-4-yl}methanesulfonamide], the “OX2R agonist activity (3 μM, %)” value is reported as 81%.
With `Cc1cccc(C2CC2C(=O)N2CCCC(NS(C)(=O)=O)C2)c1-c1ccccc1` (racemic) [Example 89, a mixture of rac-N-{(3R)-1-[(1R,2R)-2-(6-methyl[1,1′-biphenyl]-2-yl)cyclopropane-1-carbonyl]piperidin-3-yl}methanesulfonamide and rac-N-{(3S)-1-[(1R,2R)-2-(6-methyl[1,1′-biphenyl]-2-yl)cyclopropane-1-carbonyl]piperidin-3-yl}methanesulfonamide] the “OX2R agonist activity (3 μM, %)” value was 64%.
In the case of `CS(=O)(=O)NC1CCCN(C(=O)C2CC2c2c(F)cccc2-c2ccccc2)CC1` (racemic) [Example 95, a mixture of rac-N-{(4R)-1-[(1R,2R)-2-(3-fluoro[1,1′-biphenyl]-2-yl)cyclopropane-1-carbonyl]azepan-4-yl}methanesulfonamide and rac-N-{(4S)-1-[(1R,2R)-2-(3-fluoro[1,1′-biphenyl]-2-yl)cyclopropane-1-carbonyl]azepan-4-yl}methanesulfonamide], the “OX2R agonist activity (3 μM, %)” value is reported as 61%.
With `CS(=O)(=O)NC1CCCN(C(=O)C2CC2c2cc(F)ccc2-c2c(F)cccc2F)CC1` (racemic) [Example 96, a mixture of rac-N-{(4R)-1-[(1R,2R)-2-(2′,4,6′-trifluoro[1,1′-biphenyl]-2-yl)cyclopropane-1-carbonyl]azepan-4-yl}methanesulfonamide and rac-N-{(4S)-1-[(1R,2R)-2-(2′,4,6′-trifluoro[1,1′-biphenyl]-2-yl)cyclopropane-1-carbonyl]azepan-4-yl}methanesulfonamide] the “OX2R agonist activity (3 μM, %)” value was 62%.
`CS(=O)(=O)NC1CCCN(C(=O)C2CC2c2cc(F)ccc2-c2c(F)cccc2F)C1` (racemic) [Example 98, a mixture of rac-N-{(3R)-1-[(1R,2R)-2-(2′,4,6′-trifluoro[1,1′-biphenyl]-2-yl)cyclopropane-1-carbonyl]piperidin-3-yl}methanesulfonamide and rac-N-{(3S)-1-[(1R,2R)-2-(2′,4,6′-trifluoro[1,1′-biphenyl]-2-yl)cyclopropane-1-carbonyl]piperidin-3-yl}methanesulfonamide] was tested, and the “OX2R agonist activity (3 μM, %)” value was 56%.
In the case of `CS(=O)(=O)NC1CCCN(C(=O)C2CC2c2cccc(F)c2-c2ccccc2F)C1` (racemic) [Example 105, a mixture of rac-N-{(3R)-1-[(1R,2R)-2-(2′,6-difluoro[1,1′-biphenyl]-2-yl)cyclopropane-1-carbonyl]piperidin-3-yl}methanesulfonamide and rac-N-{(3S)-1-[(1R,2R)-2-(2′,6-difluoro[1,1′-biphenyl]-2-yl)cyclopropane-1-carbonyl]piperidin-3-yl}methanesulfonamide], the “OX2R agonist activity (3 μM, %)” value is reported as 60%.
For `CS(=O)(=O)NC1CCCN(C(=O)C2CC2c2cccc(F)c2-c2ccccc2F)CC1` (racemic) [Example 106, a mixture of rac-N-{(4R)-1-[(1R,2R)-2-(2′,6-difluoro[1,1′-biphenyl]-2-yl)cyclopropane-1-carbonyl]azepan-4-yl}methanesulfonamide and rac-N-{(4S)-1-[(1R,2R)-2-(2′,6-difluoro[1,1′-biphenyl]-2-yl)cyclopropane-1-carbonyl]azepan-4-yl}methanesulfonamide], the “OX2R agonist activity (3 μM, %)” value was 63%.
With `CCS(=O)(=O)NC1CCCN(C(=O)C2CC2c2ccccc2-c2c(F)cccc2F)CC1` (racemic) [Example 112, a mixture of rac-N-{(4R)-1-[(1R,2R)-2-(2′,6′-difluoro[1,1′-biphenyl]-2-yl)cyclopropane-1-carbonyl]azepan-4-yl}ethanesulfonamide and rac-N-{(4S)-1-[(1R,2R)-2-(2′,6-difluoro[1,1′-biphenyl]-2-yl)cyclopropane-1-carbonyl]azepan-4-yl}ethanesulfonamide] the “OX2R agonist activity (3 μM, %)” value was 101%.
In the case of `CN(C)S(=O)(=O)NC1CCN(C(=O)C2CC2c2ccccc2-c2c(F)cccc2F)C1` (racemic) [Example 113, a mixture of rac-N′-{(3R)-1-[(1R,2R)-2-(2′,6′-difluoro[1,1′-biphenyl]-2-yl)cyclopropane-1-carbonyl]pyrrolidin-3-yl}-N,N-dimethylsulfuric diamide and rac-N′-{(3S)-1-[(1R,2R)-2-(2′,6-difluoro[1,1′-biphenyl]-2-yl)cyclopropane-1-carbonyl]pyrrolidin-3-yl}-N,N-dimethylsulfuric diamide], the “OX2R agonist activity (3 μM, %)” value is reported as 100%.
With `CN(C)S(=O)(=O)NC1CCCN(C(=O)C2CC2c2ccccc2-c2c(F)cccc2F)CC1` (racemic) [Example 114, a mixture of rac-N′-{(4R)-1-[(1R,2R)-2-(2′,6′-difluoro[1,1′-biphenyl]-2-yl)cyclopropane-1-carbonyl]azepan-4-yl}-N,N-dimethylsulfuric diamide and rac-N′-{(4S)-1-[(1R,2R)-2-(2′,6′-difluoro[1,1′-biphenyl]-2-yl)cyclopropane-1-carbonyl]azepan-4-yl}-N,N-dimethylsulfuric diamide] the “OX2R agonist activity (3 μM, %)” value was 102%.
`O=C(C1CC1c1ccccc1-c1c(F)cccc1F)N1CCCC(NS(=O)(=O)C2CC2)C1` (racemic) [Example 123, a mixture of rac-N-{(3R)-1-[(1R,2R)-2-(2′,6′-difluoro[1,1′-biphenyl]-2-yl)cyclopropane-1-carbonyl]piperidin-3-yl}cyclopropanesulfonamide and rac-N-{(3S)-1-[(1R,2R)-2-(2′,6′-difluoro[1,1′-biphenyl]-2-yl)cyclopropane-1-carbonyl]piperidin-3-yl}cyclopropanesulfonamide] was tested, and the “OX2R agonist activity (3 μM, %)” value was 100%.
`CS(=O)(=O)NC12CC1CN(C(=O)C1CC1c1ccccc1-c1c(F)cccc1F)C2` (racemic) [Example 124, a mixture of rac-N-{(1S,5R)-3-[(1R,2R)-2-(2′,6′-difluoro[1,1′-biphenyl]-2-yl)cyclopropane-1-carbonyl]-3-azabicyclo[3.1.0]hexan-1-yl}methanesulfonamide and rac-N-{(1R,5S)-3-[(1R,2R)-2-(2′,6′-difluoro[1,1′-biphenyl]-2-yl)cyclopropane-1-carbonyl]-3-azabicyclo[3.1.0]hexan-1-yl}methanesulfonamide] was tested, and the “OX2R agonist activity (3 μM, %)” value was 104%.
For `CS(=O)(=O)NC1CCN(C(=O)C2CC2c2c(F)cccc2-c2ccccc2Cl)C1` (racemic) [Example 126, a mixture of rac-N-{(3R)-1-[(1R,2R)-2-(2′-chloro-3-fluoro[1,1′-biphenyl]-2-yl)cyclopropane-1-carbonyl]pyrrolidin-3-yl}methanesulfonamide and rac-N-{(3S)-1-[(1R,2R)-2-(2′-chloro-3-fluoro[1,1′-biphenyl]-2-yl)cyclopropane-1-carbonyl]pyrrolidin-3-yl}methanesulfonamide], the “OX2R agonist activity (3 μM, %)” value was 89%.
`CS(=O)(=O)NCC1CCN1C(=O)C1CC1c1ccccc1-c1c(F)cccc1F` (racemic) [Example 127, a mixture of rac-N-({(2R)-1-[(1R,2R)-2-(2′,6′-difluoro[1,1′-biphenyl]-2-yl)cyclopropane-1-carbonyl]azetidin-2-yl}methyl)methanesulfonamide and rac-N-({(2S)-1-[(1R,2R)-2-(2′,6′-difluoro[1,1′-biphenyl]-2-yl)cyclopropane-1-carbonyl]azetidin-2-yl}methyl)methanesulfonamide] was tested, and the “OX2R agonist activity (3 μM, %)” value was 57%.
